Read-outs that look alike come from different tables or passages of the source.
Assays:
[1] = system: Acinetobacter baumannii; test: Broth microdilution MIC (CLSI), Acinetobacter baumannii; format: cell-based; conditions: Acinetobacter baumannii
Source text: (§1) (i) Panels of engineered bacterial strains containing various combinations of porin and efflux mutations were used. The construction of all the strains used in the study is described in detail in references, [44], and [45]. (ii) KPC-producing clinical isolates and their derivatives that lost KPC plasmids were used also. These strains and their origins are described in the Table S2. (iii) Finally, KPC-producing clinical isolates enriched in strains with porin mutations were used. The mutations identified include various deletions, insertions, nonsense mutations, and decreased expression. Most of the isolates were obtained from JMI Laboratories or International Health Management Associates (IHMA); they were collected in the course of global surveillance studies.
(§2) Bacterial isolates were subjected to broth microdilution susceptibility testing, performed according to Clinical and Laboratory Standards Institute (CLSI) methods ([46]), using panels prepared in-house. […] Xeruborbactam was synthesized at Qpex Biopharma, San Diego, CA. Avibactam was purchased from eNovation Chemicals LLC, Bridgewater, NJ, USA; zidebactam was from MedKoo Biosciences, Inc., Morrisville, NC, and nacubactam was from Advanced ChemBlocks, Hayward, CA. Durlobactam was synthesized at Acme Bioscience, Palo Alto, CA, USA.

[2] = system: Escherichia coli; test: Broth microdilution MIC (CLSI), Escherichia coli; format: cell-based
Source text: as §1, §2

[3] = system: Pseudomonas aeruginosa; test: Broth microdilution MIC (CLSI), Pseudomonas aeruginosa; format: cell-based
Source text: as §1, §2

[4] = system: A. baumannii strain ATCC 17978; test: Fluorescence microscopy, cellular morphology; format: cell-based, Acinetobacter baumannii; conditions: xeruborbactam, meropenem 1× and 2× MIC; aztreonam 2× MIC; amdinocillin 2 μg/mL
Description: Single colonies of K. pneumoniae strain KPM1026a, A. baumannii strain ATCC 17978, and P. aeruginosa strain PAM1154 were picked from LB agar plates, inoculated in cation-adjusted Mueller-Hinton broth (CA-MHB), and incubated overnight at 30°C with rolling. Overnight cultures were diluted into fresh CA-MHB and incubated at 30°C, with rolling, until they reached an OD600 of ≈0.12 to 0.15 (equivalent to ~2 × 10^8 CFU/mL). Samples were then treated with compounds and incubated at 30°C, with rolling. After 1 or 2 h of treatment, cells were collected and stained with a dye mix containing FM4-64 (1 μg/mL), DAPI (4′,6-diamidino-2-phenylindole) (2 μg/mL), and SYTOX green (0.5 μM) (Molecular Probes, Invitrogen, or Thermo Fisher Scientific). Cells were transferred onto an agarose pad containing 1.2% agarose and 20% LB medium for microscopy. Microscopy was performed as previously described ([34]).

C[C@H]1[C@H](NC(=O)/C(=N\OC(C)(C)C(=O)O)c2csc(N)n2)C(=O)N1S(=O)(=O)O [Aztreonam]
MIC ([1]; AB1007 (no beta-lactamase), xeruborbactam 0 µg/ml, read-out: MIC): 32 µg/mL
MIC ([1]; AB1007, xeruborbactam 2 µg/ml, read-out: MIC): 32 µg/mL
MIC ([1]; AB1007, xeruborbactam 4 µg/ml, read-out: MIC): 16 µg/mL
MIC ([1]; AB1007, xeruborbactam 8 µg/ml, read-out: MIC): 4 µg/mL
MIC ([1]; ATCC17978, strain ATCC 17978 (Fig. 6), read-out: MIC): 32 µg/mL
MIC ([1]; strain AB1007, wild type, read-out: MIC): 32 µg/mL
MIC ([1]; strain ACM1013, ΔadeIJK): 1 µg/mL
MIC ([1]; strain ACM1014, ΔadeABC): 16 µg/mL
MIC ([1]; strain ACM1015, ΔadeIJK ΔadeABC): 1 µg/mL
MIC ([1]; strain ACM1027, adeN (AdeIJK overexpression)): 64 µg/mL
MIC ([1]; strain ACM1030, adeS (AdeABC overexpression)): 16 µg/mL
MIC ([2]; EC1078, PBP2 same as MG1655, PBP3 I332V): 64
MIC ([2]; EC1081, PBP2 same as MG1655, PBP3 Q227H): 64
MIC ([2]; EC1085, PBP2 T331P, PBP3 A233T I332V): 2
MIC ([2]; EC1088, PBP2 A308G, PBP3 same as MG1655): > 64
MIC ([2]; EC1097, PBP2 M574I, PBP3 Q227H): > 64
MIC ([2]; EC1098, PBP2 V217M, PBP3 YRIN ins, I532L): 64
MIC ([2]; EC1103, PBP2 same as MG1655, PBP3 YRIN ins, Q227H, E349K, I532L): 32
MIC ([2]; EC1105, PBP2 A543T, PBP3 YRIN ins, Q227H, E349K, I532L): > 64
MIC ([2]; EC1119, PBP2 same as MG1655, PBP3 YRIN ins, Q227H, E349K, I532L): > 64
MIC ([2]; EC1121, PBP2 V217M, PBP3 YRIN ins, E349K, I532L): > 64
MIC ([2]; Escherichia coli, strain ECM5497, wild type, read-out: MIC): 0.03 µg/mL
MIC ([2]; Escherichia coli, strain ECM6001, ΔacrB): 0.03 µg/mL
MIC ([3]; PAM1154 (oprM::Hg), xeruborbactam 0 µg/ml): 0.5 µg/mL
MIC ([3]; Pseudomonas aeruginosa, strain 1089003, alone, read-out: MIC): 0.5 µg/mL
MIC ([3]; Pseudomonas aeruginosa, strain 1097436, alone, read-out: MIC): 64 µg/mL
MIC ([3]; Pseudomonas aeruginosa, strain 1098916, alone, read-out: MIC): 0.5 µg/mL
MIC ([3]; Pseudomonas aeruginosa, strain 1104168, alone, read-out: MIC): 1 µg/mL
MIC ([3]; Pseudomonas aeruginosa, strain 1104284, alone, read-out: MIC): 0.5 µg/mL
MIC ([3]; Pseudomonas aeruginosa, strain 1106973, alone, read-out: MIC): 2 µg/mL
MIC ([3]; Pseudomonas aeruginosa, strain 1109744, alone, read-out: MIC): 0.5 µg/mL
MIC ([3]; Pseudomonas aeruginosa, strain 1113238, alone, read-out: MIC): 32 µg/mL
MIC ([3]; Pseudomonas aeruginosa, strain 1113634, alone, read-out: MIC): 4 µg/mL
MIC ([3]; Pseudomonas aeruginosa, strain 1116835, alone, read-out: MIC): 0.5 µg/mL
MIC ([3]; Pseudomonas aeruginosa, strain 1116849, alone, read-out: MIC): 2 µg/mL
MIC ([3]; Pseudomonas aeruginosa, strain 1118234, alone, read-out: MIC): 32 µg/mL
MIC ([3]; Pseudomonas aeruginosa, strain 1119418, alone, read-out: MIC): 32 µg/mL
MIC ([3]; Pseudomonas aeruginosa, strain 1125954, alone, read-out: MIC): 1 µg/mL
MIC ([3]; Pseudomonas aeruginosa, strain 1125996, alone, read-out: MIC): > 64 µg/mL
MIC ([3]; Pseudomonas aeruginosa, strain 1126521, alone, read-out: MIC): 0.5 µg/mL
MIC ([3]; Pseudomonas aeruginosa, strain 1126957, alone, read-out: MIC): > 64 µg/mL
MIC ([3]; Pseudomonas aeruginosa, strain 1126982, alone, read-out: MIC): 0.5 µg/mL
MIC ([3]; Pseudomonas aeruginosa, strain 1128636, alone, read-out: MIC): 2 µg/mL
MIC ([3]; Pseudomonas aeruginosa, strain 1128674, alone, read-out: MIC): 4 µg/mL
MIC ([3]; Pseudomonas aeruginosa, strain 1130447, alone, read-out: MIC): > 64 µg/mL
MIC ([3]; Pseudomonas aeruginosa, strain PAM1020, wild type, read-out: MIC): 4 µg/mL
MIC ([3]; Pseudomonas aeruginosa, strain PAM1032, nalB (MexAB-OprM overexpression)): 16 µg/mL
MIC ([3]; Pseudomonas aeruginosa, strain PAM1033, nfxB (MexCD-OprJ overexpression)): 1 µg/mL
MIC ([3]; Pseudomonas aeruginosa, strain PAM1034, nfxC (MexEF-OprN overexpression)): 4 µg/mL
cellular morphology [4]: increase in cell length
